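A five-concentration, 48-hour dose response in 96-well plates underlies each endpoint, interpolated linearly between surrounding concentrations. At the TGI there is no net growth.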
Assays:
Assay in all cases: growth of human tumour cells (NCI), 48 h
IGROV1 ovarian = tested on: IGROV1 ovarian
ACHN renal = tested on: ACHN renal
SF-295 CNS = tested on: SF-295 CNS
OVCAR-5 ovarian = tested on: OVCAR-5 ovarian
RXF 393 renal = tested on: RXF 393 renal
UO-31 renal = tested on: UO-31 renal
HCT-15 colon = tested on: HCT-15 colon
786-0 renal = tested on: 786-0 renal
OVCAR-8 ovarian = tested on: OVCAR-8 ovarian
K-562 leukemia = tested on: K-562 leukemia
SK-MEL-28 melanoma = tested on: SK-MEL-28 melanoma
TK-10 renal = tested on: TK-10 renal
DMS 273 small cell lung = tested on: DMS 273 small cell lung
MOLT-4 leukemia = tested on: MOLT-4 leukemia
KM12 colon = tested on: KM12 colon
LOX IMVI melanoma = tested on: LOX IMVI melanoma
SN12C renal = tested on: SN12C renal
A498 renal = tested on: A498 renal
SF-268 CNS = tested on: SF-268 CNS
SF-539 CNS = tested on: SF-539 CNS
SNB-19 CNS = tested on: SNB-19 CNS
OVCAR-4 ovarian = tested on: OVCAR-4 ovarian
A549 NSCLC = tested on: A549 NSCLC
M14 melanoma = tested on: M14 melanoma
NCI-H460 lung = tested on: NCI-H460 lung
UACC-62 melanoma = tested on: UACC-62 melanoma
SK-MEL-5 melanoma = tested on: SK-MEL-5 melanoma
NCI-H23 lung = tested on: NCI-H23 lung
KM20L2 colon = tested on: KM20L2 colon
COLO 205 colon = tested on: COLO 205 colon
HOP-18 NSCLC = tested on: HOP-18 NSCLC
NCI-H522 lung = tested on: NCI-H522 lung
SNB-78 CNS = tested on: SNB-78 CNS
OVCAR-3 ovarian = tested on: OVCAR-3 ovarian
UACC-257 melanoma = tested on: UACC-257 melanoma
CCRF-CEM leukemia = tested on: CCRF-CEM leukemia
HT29 colon = tested on: HT29 colon
RXF-631 renal = tested on: RXF-631 renal
HOP-92 NSCLC = tested on: HOP-92 NSCLC
DMS 114 small cell lung = tested on: DMS 114 small cell lung
HCC-2998 colon = tested on: HCC-2998 colon
DLD-1 colon = tested on: DLD-1 colon
HCT-116 colon = tested on: HCT-116 colon
NCI-H226 lung = tested on: NCI-H226 lung
XF 498 CNS = tested on: XF 498 CNS
M19-MEL melanoma = tested on: M19-MEL melanoma
U251 CNS = tested on: U251 CNS
SK-MEL-2 melanoma = tested on: SK-MEL-2 melanoma
SW-620 colon = tested on: SW-620 colon
HOP-62 NSCLC = tested on: HOP-62 NSCLC
RPMI-8226 leukemia = tested on: RPMI-8226 leukemia
MALME-3M melanoma = tested on: MALME-3M melanoma
CAKI-1 renal = tested on: CAKI-1 renal
SNB-75 CNS = tested on: SNB-75 CNS
HL-60(TB) leukemia = tested on: HL-60(TB) leukemia
LXFL 529 NSCLC = tested on: LXFL 529 NSCLC
SR leukemia = tested on: SR leukemia
EKVX NSCLC = tested on: EKVX NSCLC
SK-OV-3 ovarian = tested on: SK-OV-3 ovarian

SMILES: CN(C)CC1(C)CC/C(=C\c2ccccc2)C1=O (stereo not given)
- TGI (IGROV1 ovarian): > 100 µM
- TGI (ACHN renal): > 100 µM
- TGI (SF-295 CNS): > 100 µM
- TGI (OVCAR-5 ovarian): > 100 µM
- TGI (RXF 393 renal): > 100 µM
- TGI (UO-31 renal): > 100 µM
- TGI (HCT-15 colon): > 100 µM
- TGI (786-0 renal): > 100 µM
- TGI (OVCAR-8 ovarian): > 100 µM
- TGI (K-562 leukemia): > 100 µM
- TGI (SK-MEL-28 melanoma): > 100 µM
- TGI (TK-10 renal): > 100 µM
- TGI (DMS 273 small cell lung): > 100 µM
- TGI (MOLT-4 leukemia): > 100 µM
- TGI (KM12 colon): > 100 µM
- TGI (LOX IMVI melanoma): > 100 µM
- TGI (SN12C renal): > 100 µM
- TGI (A498 renal): > 100 µM
- TGI (SF-268 CNS): > 100 µM
- TGI (SF-539 CNS): > 100 µM
- TGI (SNB-19 CNS): > 100 µM
- TGI (OVCAR-4 ovarian): > 100 µM
- TGI (A549 NSCLC): > 100 µM
- TGI (M14 melanoma): > 100 µM
- TGI (NCI-H460 lung): > 100 µM
- TGI (UACC-62 melanoma): > 100 µM
- TGI (SK-MEL-5 melanoma): > 100 µM
- TGI (NCI-H23 lung): > 100 µM
- TGI (KM20L2 colon): > 100 µM
- TGI (COLO 205 colon): > 100 µM
- TGI (HOP-18 NSCLC): > 100 µM
- TGI (NCI-H522 lung): > 100 µM
- TGI (SNB-78 CNS): > 100 µM
- TGI (OVCAR-3 ovarian): > 100 µM
- TGI (UACC-257 melanoma): > 100 µM
- TGI (CCRF-CEM leukemia): > 100 µM
- TGI (HT29 colon): > 100 µM
- TGI (RXF-631 renal): > 100 µM
- TGI (HOP-92 NSCLC): > 100 µM
- TGI (DMS 114 small cell lung): > 100 µM
- TGI (HCC-2998 colon): > 100 µM
- TGI (DLD-1 colon): > 100 µM
- TGI (HCT-116 colon): > 100 µM
- TGI (NCI-H226 lung): > 100 µM
- TGI (XF 498 CNS): > 100 µM
- TGI (M19-MEL melanoma): > 100 µM
- TGI (U251 CNS): > 100 µM
- TGI (SK-MEL-2 melanoma): > 100 µM
- TGI (SW-620 colon): > 100 µM
- TGI (HOP-62 NSCLC): > 100 µM
- TGI (RPMI-8226 leukemia): 63.2 µM
- TGI (MALME-3M melanoma): > 100 µM
- TGI (CAKI-1 renal): > 100 µM
- TGI (SNB-75 CNS): > 100 µM

SMILES: c1ccc(CN(Cn2cccn2)Cn2cccn2)nc1
- TGI (ACHN renal): > 100 µM
- TGI (SF-295 CNS): > 100 µM
- TGI (RXF 393 renal): > 100 µM
- TGI (UO-31 renal): > 100 µM
- TGI (HCT-15 colon): > 100 µM
- TGI (786-0 renal): > 100 µM
- TGI (OVCAR-8 ovarian): > 100 µM
- TGI (K-562 leukemia): > 100 µM
- TGI (SK-MEL-28 melanoma): > 100 µM
- TGI (TK-10 renal): > 100 µM
- TGI (DMS 273 small cell lung): > 100 µM
- TGI (MOLT-4 leukemia): > 100 µM
- TGI (KM12 colon): > 100 µM
- TGI (LOX IMVI melanoma): > 100 µM
- TGI (SN12C renal): > 100 µM
- TGI (A498 renal): > 100 µM
- TGI (SF-268 CNS): > 100 µM
- TGI (SNB-19 CNS): > 100 µM
- TGI (OVCAR-4 ovarian): > 100 µM
- TGI (HL-60(TB) leukemia): > 100 µM
- TGI (A549 NSCLC): > 100 µM
- TGI (M14 melanoma): > 100 µM
- TGI (NCI-H460 lung): > 100 µM
- TGI (UACC-62 melanoma): > 100 µM
- TGI (SK-MEL-5 melanoma): > 100 µM
- TGI (NCI-H23 lung): > 100 µM
- TGI (LXFL 529 NSCLC): > 100 µM
- TGI (KM20L2 colon): > 100 µM
- TGI (COLO 205 colon): > 100 µM
- TGI (NCI-H522 lung): > 100 µM
- TGI (SNB-78 CNS): > 100 µM
- TGI (SR leukemia): > 100 µM
- TGI (OVCAR-3 ovarian): > 100 µM
- TGI (UACC-257 melanoma): > 100 µM
- TGI (CCRF-CEM leukemia): > 100 µM
- TGI (RXF-631 renal): > 100 µM
- TGI (HOP-92 NSCLC): > 100 µM
- TGI (EKVX NSCLC): > 100 µM
- TGI (DMS 114 small cell lung): > 100 µM
- TGI (DLD-1 colon): > 100 µM
- TGI (HCT-116 colon): > 100 µM
- TGI (SK-OV-3 ovarian): > 100 µM
- TGI (XF 498 CNS): > 100 µM
- TGI (M19-MEL melanoma): > 100 µM
- TGI (U251 CNS): > 100 µM
- TGI (SK-MEL-2 melanoma): > 100 µM
- TGI (SW-620 colon): > 100 µM
- TGI (HOP-62 NSCLC): > 100 µM
- TGI (RPMI-8226 leukemia): 78.8 µM
- TGI (CAKI-1 renal): > 100 µM
- TGI (SNB-75 CNS): > 100 µM

Source: PubChem BioAssay (NCI)
